Experimental data as given in patent US20250325524A1, “COMPOSITIONS AND METHODS FOR TREATING RENAL INJURY” (CASE WESTERN RESERVE UNIVERSITY, priority 2018, published 2025).

Assays:
mice with ischemic AKI [1] = experiment: renal ischemia-reperfusion injury model: renal function (serum creatinine, NGAL, KIM-1); assay type: in vivo; conditions: IRI-30 min, 3 doses of 5 mg/kg, 24 hours reperfusion
Experimental: (§1) Mice were anesthetized with isoflurane using a vaporizer and placed on a heating pad to maintain their body temperature at 37° C. Both renal arteries were identified through dorsal incisions and clamped for 20, 30, 35, or 37 minutes. Reperfusion was confirmed visually upon release of the clamps. Surgical wounds were closed, and mice were administered 1 mL of saline i.p. The mice were kept in a warm incubator until they regained consciousness and were allowed to recover with ad libitum access to food and water. […] Serum and kidney tissue were collected 24 hours after renal IRI.
Renal function was assessed by determining the serum levels of creatinine (KB02-H1; Arbor Assays), Lipocalin-2 (NGAL; MLCN20; R&D Systems), and kidney injury molecule-1 (KIM-1; MKM100; R&D Systems) after reperfusion for 24 h.

[2] = stability on incubation with human liver extracts; assay type: in vitro ADME
mice = experiment: toxicity after IP injection into mice; conditions: IP into mice at 50 mg/kg body weight
[3] = chemical stability in aqueous solutions; assay type: physicochemical; conditions: over broad pH range
[4] = stability on incubation with mouse liver extracts; assay type: in vitro ADME
[5] = stability on incubation with rat liver extracts; assay type: in vitro ADME
recombinant 15-PGDH = target: T1, recombinant 15-PGDH (Homo sapiens, UniProt P15428); experiment: inhibition of recombinant 15-PGDH; assay type: biochemical
T1 sequence (P15428 1-266): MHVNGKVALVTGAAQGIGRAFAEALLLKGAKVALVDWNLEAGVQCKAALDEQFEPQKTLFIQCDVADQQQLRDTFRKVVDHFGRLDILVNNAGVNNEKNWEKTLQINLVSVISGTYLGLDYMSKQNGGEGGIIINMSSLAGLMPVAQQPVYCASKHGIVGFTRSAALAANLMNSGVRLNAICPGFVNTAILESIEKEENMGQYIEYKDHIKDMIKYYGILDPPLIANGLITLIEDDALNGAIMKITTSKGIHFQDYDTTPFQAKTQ

[6] = tested on: PGE2 production by cell lines; experiment: PGE2 production by cell lines; assay type: cell-based
[7] = tested on: PGE2 receptors (EP1, EP2, EP3 and EP4) and adenosine receptor (A2A); experiment: renal IRI model: PGE2 receptors (EP1-EP4) and adenosine A2A receptor levels; assay type: in vivo, mice; conditions: kidney tissue, IRI mice
Experimental: as §1
PGE2 receptors (EP1, EP2, EP3 and EP4) and adenosine receptor (A2A) mRNA levels were determined by real-time PCR with SYBR green PCR Master Mix and the primers listed in Table 1. Their protein levels were determined by western blotting assay and immunofluorescence analysis.

mice with ischemic AKI [8] = experiment: renal IRI model: necrotic and apoptotic cell death in the outer medulla; assay type: in vivo
Experimental: as §1
To evaluate necrosis, 5-μm-thick paraffin sections were stained with H&E. Tubular injury was scored semi quantitatively according to a scoring system by a pathologist who examined at least 20 separate fields (×400) in the outer medulla, which is the zone most sensitive to ischemic injury. The scoring system was as follows: 0, no damage; 1, patchy isolated unicellular necrosis; 2, tubular necrosis <25%; 3, tubular necrosis 25-50%; and 4, tubular necrosis >50%. At least 20 consecutive high-power fields (magnification, ×400) per section were scored by two operators blind to the details of the experiment. To analyze the frequency of apoptosis, 5-μm-thick paraffin sections were subjected to terminal deoxynucleotidyl transferase-mediated dUTP nick-end labeling (TUNEL) assay (APT110; Millipore) according to the manufacturer's protocol. TUNEL-positive cells were counted in at least five separate fields (×640 magnification) in the outer medulla, and the apoptosis index (%, number of apoptosis cells/total number of cells) was calculated using GENASIS software.

[9] = tested on: HMGB1 and proinflammatory cytokines; experiment: renal IRI model: HMGB1 and cytokine levels; assay type: in vivo; conditions: mice, 3 doses 5 mg/kg
Experimental: as §1
Inflammatory cytokine mRNA and protein levels were measured by real-time PCR and ELISA, respectively. Kidney tissue and serum were harvested after reperfusion for 24 h. Total RNA was extracted from frozen kidney tissue using TRIzol reagent (15596018; Invitrogen), according to the manufacturer's protocol. RNA was converted to cDNA using oligo-dT primers. IL-17, TNF-α, and […] levels were determined by real-time PCR with SYBR green PCR Master Mix and the primers listed in Table 1. For ELISA, frozen kidney tissues were homogenized in phosphate buffer. Serum IL-17 (M1700; R&D Systems), TNF-α (MTAOOB; R&D Systems), and IL-10β (MLBOOC; R&D Systems) were measured using commercial ELISA kits according to the manufacturer's instructions.

mice with ischemic AKI [10] = experiment: survival and body weight over 7 days after renal IRI; assay type: in vivo; conditions: bilateral IRI 30 minutes, 5 mg/kg i.p. before and twice daily over 7 days, POD7
Experimental: (A) Experimental setup for toxicity. Ischemic AKI induced by bilaterally clamping the renal arteries for 30 minutes, followed by reperfusion. […] (n=10 per group). (B, C) Survival curves and body weight over 7 days. Kaplan-Meier analysis of survival stratified by AKI stage. Data are means±SEM. *P<0.05 vs. corresponding BI30_vehicle.

[11] = tested on: renal arterioles in the outer medulla; experiment: renal vasodilatation in the outer medulla (α-SMA-positive arteriole area); assay type: in vivo, mice; conditions: IRI mice; α-SMA staining
Experimental: as §1
To quantify vasodilation, the inner arteriole area of the outer medulla was determined using α-SMA-stained sections. After counterstaining with Mayer's hematoxylin, the inner area of α-SMA-positive vessels in the outer medulla (×25) was measured using ImageJ. The results are expressed as average areas of renal arteries outer medulla.

Q: With `CCCCC[C@H](O)/C=C/[C@H]1[C@H](O)CC(=O)[C@@H]1C/C=C\CCCC(=O)O` [PGE2, reference compound] as the compound, how does the “renal protection from IRI (serum NGAL, creatinine, KIM-1)” value (mice with ischemic AKI [1]) read?
A: The value was “less effective for renal protection”.

Q: What does the source list for `CCCC[S+]([O-])c1sc2nc(-c3nccs3)cc(-c3cnc(C)n3C)c2c1N` (stereo not drawn) [formula (VII)]?
A: chemical stability when incubated with human liver extracts [2]: chemically stable; immediate toxicity over 24 hours (mice): no immediate toxicity; chemical stability in aqueous solutions [3]: chemically stable; chemical stability when incubated with mouse liver extracts [4]: chemically stable; chemical stability when incubated with rat liver extracts [5]: chemically stable; concentration at which recombinant 15-PGDH is inhibited (recombinant 15-PGDH): 3 nM; concentration at which PGE2 production by cell lines is increased [6]: 20 nM

Q: What does the source list for `COc1ccc2c(c1)c(CC(=O)O)c(C)n2C(=O)c1ccc(Cl)cc1` [indomethacin, reference compound]?
A: EP4 mRNA [7]: reduced; increase of levels of mRNA for EP1 [7]: 40%; tissue congestion in the outer medulla (gross pathology) (mice with ischemic AKI [8]; 3 doses 5 mg/kg i.p., POD1, vs IRI-vehicle): worsened; renal injury (histopathology, tubular injury) (mice with ischemic AKI [8]; 3 doses 5 mg/kg, POD1): further exacerbated renal injury; renal protection from IRI (serum NGAL, creatinine, KIM-1) (mice with ischemic AKI [1]): significantly aggravated IRI; induction of inflammatory cytokines [9]: increased induction of inflammatory cytokines; increase of HMGB1 compared to the IRI-vehicle group ([9]; kidney tissue, western blot): 50%; reduced survival vs vehicle control (mice with ischemic AKI [10]): 25%; renal arteriole area in the outer medulla [11]: significantly decreased

Q: With `CCCCC[C@H](O)/C=C/[C@H]1[C@H](O)CC(=O)[C@@H]1CCCCCCC(=O)O` [PGE1, reference compound] as the compound, how does the “renal protection from IRI (serum NGAL, creatinine, KIM-1)” value (mice with ischemic AKI [1]) read?
A: Its value is “less effective for renal protection”.
